# In ChEMBL document CHEMBL1201862, “PubChem BioAssay data set” (2004):
# Calls of active or inactive are those of the source.
# Legend:
# Type in all cases: functional
# [1] = target: Delta-type opioid receptor (Homo sapiens, UniProt P41143); experiment: Counterscreen for agonists of heterodimerization of the mu 1 (OPRM1) and delta 1 (OPRD1) opioid receptors: Luminescence-based cell-based high throughput dose response assay to identify agonists of OPRD1 homodimerization. [Related pubchem assays (depositor defined):AID504326, AID504355, AID504692, AID504904, AID504905]
# [2] = target: T1, High affinity choline transporter 1 (Homo sapiens, UniProt Q9GZV3); experiment: CHT inhibitors, dose response, cell-based, 10-point CRC, membrane potential dye (AID 588401);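 note: membrane potential dye fluorescence of choline-evoked depolarization via CHT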
# T1 sequence (Q9GZV3 whole entry): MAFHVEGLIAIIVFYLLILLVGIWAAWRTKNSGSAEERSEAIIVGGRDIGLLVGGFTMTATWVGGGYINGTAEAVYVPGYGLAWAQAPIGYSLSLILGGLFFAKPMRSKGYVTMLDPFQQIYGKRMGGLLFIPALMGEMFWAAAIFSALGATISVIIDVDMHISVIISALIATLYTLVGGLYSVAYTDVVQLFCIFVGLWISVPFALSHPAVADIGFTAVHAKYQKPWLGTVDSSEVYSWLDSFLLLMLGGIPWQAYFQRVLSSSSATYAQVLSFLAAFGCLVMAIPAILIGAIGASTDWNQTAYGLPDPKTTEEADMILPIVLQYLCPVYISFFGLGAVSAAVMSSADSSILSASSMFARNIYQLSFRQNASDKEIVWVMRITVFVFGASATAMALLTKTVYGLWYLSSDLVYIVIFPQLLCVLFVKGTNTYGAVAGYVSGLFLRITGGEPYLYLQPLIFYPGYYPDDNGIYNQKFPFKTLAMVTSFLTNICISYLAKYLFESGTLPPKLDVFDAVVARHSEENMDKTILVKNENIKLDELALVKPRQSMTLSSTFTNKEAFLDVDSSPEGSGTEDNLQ
# Mu-type opioid receptor = Mu-type opioid receptor (Homo sapiens, UniProt P35372); experiment: Counterscreen for agonists of heterodimerization of the mu 1 (OPRM1) and delta 1 (OPRD1) opioid receptors: Luminescence-based cell-based high throughput dose response assay to identify agonists of OPRM1 homodimerization.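 Note: U2OS cells expressing OPRM1 and beta-arrestin as split beta-galactosidase partners.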
# [3] = target: T2, Short transient receptor potential channel 4 (Mus musculus, UniProt Q9QUQ5); experiment: mouse TRPC4 channel activators, dose response, cell-based, HEK293 TRPC4/mu-opioid, Fluo-4 calcium (AID 434937)
# T2 sequence (Q9QUQ5 whole entry): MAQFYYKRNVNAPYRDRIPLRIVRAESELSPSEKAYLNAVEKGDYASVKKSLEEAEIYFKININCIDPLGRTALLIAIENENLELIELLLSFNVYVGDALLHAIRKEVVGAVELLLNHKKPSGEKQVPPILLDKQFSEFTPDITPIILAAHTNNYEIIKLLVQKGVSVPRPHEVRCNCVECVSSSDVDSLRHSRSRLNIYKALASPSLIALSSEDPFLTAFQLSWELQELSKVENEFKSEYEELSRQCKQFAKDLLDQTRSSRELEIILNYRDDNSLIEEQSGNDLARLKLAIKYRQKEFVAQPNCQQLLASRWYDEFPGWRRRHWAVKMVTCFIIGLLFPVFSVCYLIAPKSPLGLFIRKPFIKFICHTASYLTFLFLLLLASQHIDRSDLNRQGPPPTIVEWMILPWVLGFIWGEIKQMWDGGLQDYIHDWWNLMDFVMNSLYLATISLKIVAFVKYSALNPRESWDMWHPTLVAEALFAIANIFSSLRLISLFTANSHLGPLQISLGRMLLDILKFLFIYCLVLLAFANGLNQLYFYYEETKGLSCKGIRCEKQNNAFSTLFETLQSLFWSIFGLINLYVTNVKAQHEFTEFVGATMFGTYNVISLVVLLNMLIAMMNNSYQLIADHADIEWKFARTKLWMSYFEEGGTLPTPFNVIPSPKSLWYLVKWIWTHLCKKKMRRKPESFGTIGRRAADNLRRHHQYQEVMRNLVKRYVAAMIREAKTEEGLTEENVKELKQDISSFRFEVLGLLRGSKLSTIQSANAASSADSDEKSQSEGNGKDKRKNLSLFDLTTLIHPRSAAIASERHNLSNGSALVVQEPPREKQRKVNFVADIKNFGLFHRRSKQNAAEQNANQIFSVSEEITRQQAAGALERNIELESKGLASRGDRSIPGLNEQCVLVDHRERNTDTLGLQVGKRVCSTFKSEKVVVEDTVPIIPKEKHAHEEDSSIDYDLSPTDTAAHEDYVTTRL
# [4] = target: T1, High affinity choline transporter 1; experiment: CHT inhibitors, dose response, cell-based, 5-point CRC, membrane potential dye (AID 504840)
# [5] = target: 5-hydroxytryptamine receptor 5A (Homo sapiens, UniProt P47898); experiment: Counterscreen for agonists of OPRM1-OPRD1 heterodimerization: luminescence-based cell-based high throughput dose response assay to identify agonists of 5-hydroxytryptamine (serotonin) 5A receptor (HTR5A). [Related pubchem assays (depositor defined):AID504326, AID504355, AID504692, AID504904, AID504905]
# 5-hydroxytryptamine receptor 5A, sequence (P47898 whole entry): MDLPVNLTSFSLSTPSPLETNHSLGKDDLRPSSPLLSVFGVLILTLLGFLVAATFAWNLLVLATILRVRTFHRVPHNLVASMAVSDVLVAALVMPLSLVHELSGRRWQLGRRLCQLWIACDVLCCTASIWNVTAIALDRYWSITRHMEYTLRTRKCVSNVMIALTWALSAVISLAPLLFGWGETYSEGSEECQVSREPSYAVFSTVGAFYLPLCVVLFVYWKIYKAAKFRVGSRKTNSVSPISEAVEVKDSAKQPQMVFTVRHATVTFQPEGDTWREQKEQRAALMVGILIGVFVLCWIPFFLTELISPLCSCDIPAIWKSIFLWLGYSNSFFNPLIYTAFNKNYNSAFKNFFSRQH
# Mu-type opioid receptor, sequence (P35372 whole entry): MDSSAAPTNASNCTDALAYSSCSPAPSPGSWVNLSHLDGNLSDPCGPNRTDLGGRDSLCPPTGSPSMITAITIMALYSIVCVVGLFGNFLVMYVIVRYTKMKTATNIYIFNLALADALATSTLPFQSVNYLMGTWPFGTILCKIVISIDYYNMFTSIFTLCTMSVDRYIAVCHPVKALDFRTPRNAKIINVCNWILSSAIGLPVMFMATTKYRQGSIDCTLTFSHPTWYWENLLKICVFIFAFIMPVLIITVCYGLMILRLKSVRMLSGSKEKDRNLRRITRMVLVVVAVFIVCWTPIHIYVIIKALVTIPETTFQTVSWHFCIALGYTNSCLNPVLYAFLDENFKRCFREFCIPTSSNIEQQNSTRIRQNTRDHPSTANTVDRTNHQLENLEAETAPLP
# Delta-type opioid receptor, sequence (P41143 whole entry): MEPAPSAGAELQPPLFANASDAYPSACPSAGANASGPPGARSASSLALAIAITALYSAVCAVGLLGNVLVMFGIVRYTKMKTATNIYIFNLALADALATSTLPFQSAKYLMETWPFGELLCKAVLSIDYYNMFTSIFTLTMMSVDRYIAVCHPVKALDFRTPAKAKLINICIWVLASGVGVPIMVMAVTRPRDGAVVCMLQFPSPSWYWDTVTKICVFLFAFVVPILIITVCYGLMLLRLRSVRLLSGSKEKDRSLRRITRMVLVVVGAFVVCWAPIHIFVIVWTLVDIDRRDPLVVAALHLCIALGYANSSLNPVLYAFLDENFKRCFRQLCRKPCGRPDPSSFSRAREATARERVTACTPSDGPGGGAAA
smiles,measurement,setting,value
CCOc1ccc(S(=O)(=O)Nc2cccc(C(=O)NCC(c3ccccc3)N(C)C)c2)cc1 (stereo unspecified),EC50,[1],14.1 µM (inactive)
same,IC50,[2],3.76 µM (active)
same,EC50,Mu-type opioid receptor,> 92.5 µM (inactive)
same,EC50,[3],2.99 µM (active)
same,IC50,[4],4.43 µM (active)
same,EC50,[5],> 92.5 µM (inactive)
